Earlier results, collected in PMC7938295 (Biomedical Reports, 2021).

Molecular target: DPP4 (Homo sapiens, UniProt P27487)
Details: read-out: DPP4 Ki

DPP4, sequence (P27487 whole entry): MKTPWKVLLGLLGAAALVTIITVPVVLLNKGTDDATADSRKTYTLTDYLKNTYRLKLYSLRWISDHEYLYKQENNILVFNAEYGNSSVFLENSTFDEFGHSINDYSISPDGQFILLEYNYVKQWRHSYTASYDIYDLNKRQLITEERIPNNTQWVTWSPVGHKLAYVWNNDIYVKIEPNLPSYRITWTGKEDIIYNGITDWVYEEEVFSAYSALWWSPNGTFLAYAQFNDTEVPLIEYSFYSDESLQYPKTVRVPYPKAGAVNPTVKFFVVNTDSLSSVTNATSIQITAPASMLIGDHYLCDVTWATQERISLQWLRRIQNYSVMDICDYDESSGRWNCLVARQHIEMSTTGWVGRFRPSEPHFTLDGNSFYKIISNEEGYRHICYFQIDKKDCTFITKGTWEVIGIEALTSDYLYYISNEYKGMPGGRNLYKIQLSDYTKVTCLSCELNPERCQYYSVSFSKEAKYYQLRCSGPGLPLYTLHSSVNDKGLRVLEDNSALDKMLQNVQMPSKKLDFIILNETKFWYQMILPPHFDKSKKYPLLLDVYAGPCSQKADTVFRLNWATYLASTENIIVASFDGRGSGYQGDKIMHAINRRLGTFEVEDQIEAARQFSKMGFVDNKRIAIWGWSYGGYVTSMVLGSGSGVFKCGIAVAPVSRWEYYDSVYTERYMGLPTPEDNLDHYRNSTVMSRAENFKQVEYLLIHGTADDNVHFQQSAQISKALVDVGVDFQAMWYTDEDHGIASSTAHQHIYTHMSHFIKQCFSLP

Ki: 18.6 µM
SMILES: O=c1cc(-c2ccccc2)oc2ccccc12 [flavone]
